Test results taken from US12357612B2, “Prophylactic or therapeutic agent for cancer” (TOHOKU UNIVERSITY, priority 2019, dated 2025).

How the values were obtained:
[1] = test system: model mice of colorectal cancer (AOM/DSS); assay: Model mice of colorectal cancer (AOM/DSS), oral administration; assay type: in vivo, ICR mice; settings: for ratio of tumor area in the colon / number of tumors having a diameter of more than 2 mm / tumor area in the colon: versus placebo group; for ratio of tumor area in the colon: FIG. 2A; for number of tumors having a diameter of more than 2 mm: FIG. 2B; for colon length: shortening in placebo group versus control group, FIG. 1B; for tumor area in the colon: FIG. 1A
Experimental: Model mice of colorectal cancer were prepared using azoxymethane (AOM; manufactured by Wako Pure Chemical Industries, Ltd.) and dextran sulfate sodium (DSS, manufactured by MP Biomedicals). Specifically, 5-week-old male ICR mice (produced by CLEA Japan) were first acclimated and bred for 1 week. At 6 weeks of age, the mice were randomly divided in a control group and 5 colorectal cancer groups (placebo group, Present Compound #1[1] group, Present Compound #1[10] group, Present Compound #2[1] group, and Present Compound #2[10] group), and 10 (mg/kg body weight) of AOM was intraperitoneally administered to the colorectal cancer groups. Seven days later, the mice were allowed to freely drink 2.5% (w/v) DSS for 1 week, and then tap water for 14 days. This administration of DSS was performed for […] to prepare model mice of colorectal cancer. When the above AOM was intraperitoneally administered (that is, at 6 weeks of age), physiological saline solutions containing 1 (mg/kg body weight/day) and 10 (mg/kg body weight/day) of the Present Compound #1 were orally administered for 70 consecutive days thereafter to the Present Compound #1(1) group and the Present Compound #1(10) group, respectively, physiological saline solutions containing 1 (mg/kg body weight/day) and 10 (mg/kg body weight/day) of the Present Compound #2 were orally administered for 70 consecutive days thereafter to the Present Compound #2(1) group and the Present Compound #2(10) group, respectively, and a physiological saline solution was orally administered for 70 consecutive days thereafter to the placebo group. In addition, to the control group, a physiological saline solution was orally administered at 6 weeks of age for 70 consecutive days thereafter. All mice were sacrificed and the colons were harvested immediately after the end of the third cycle. The colons were photographed in full length and the colon length (see FIG. 1B), as well as the tumor area in the colon (see FIG. 1A), the ratio of tumor area in the colon (see FIG. 2A), and the number of tumors having a diameter of more than 2 mm (see FIG. 2B) were measured. Note that, for the tumors, the elevated lesions that were thought to contain cancer were visually observed in the colon (large intestine), and the area of these elevated lesions (that is, the tumors) and the total colon area were calculated by NIH Image J version 1.51 (US National Institutes of Health, MD, http://imagej.nih.gov/ij/index.html). The ratio of tumor area in the colon was calculated based on the formula “(elevated lesion area/total colon area)×100”.
Student's t-test was used for the comparison between two groups, and Dunnet's test or Tukey's test was used for the comparison between three groups. The survival rate (see FIG. 3) was evaluated by a log-rank test using the Kaplan-Meier survival curve. JMP version 14 (manufactured by SAS Institute) was used for statistical analysis. For all test results, p-values less than 0.05 were considered statistically significant.

[2] = test system: colorectal cancer cell line HCT116; assay: Cell migration test; assay type: cell-based, human; settings: 50 μM, 48 hours, HCT116, 20% FBS as attractant; versus absence of compound; FIG. 4
Experimental: Cells of the human colorectal cancer cell line HCT116 (obtained from ATCC) were cultured and maintained in a DMEM (Dulbecco's Modified Eagle Medium) culture solution (manufactured by Sigma-Aldrich) containing 10% fetal bovine serum (FBS) (manufactured by Biowest) and 1% penicillin-streptomycin (manufactured by Thermo Fisher Science) under the conditions of 5% CO2/20% O2 and 37° C.
7.5×10^4 cells of the colorectal cancer cell line HCT116 were seeded in each well of the Corning Fluoroblok 24-Multiwell Insert Systems (pore size: 8.0 μm) (manufactured by Corning), and cultured for 48 hours in FBS-free DMEM culture solution or FBS-free DMEM culture solution containing 50 μM of the Present Compound #2. Note that a DMEM culture solution containing 20% FBS, which is an attractant, was added to the chamber at the bottom of the plate. The migrating cells that had passed through the membrane on the lower surface of the cell culture insert were stained using a Diff-Quik kit (manufactured by Sysmex), the membrane was air-dried, and then the number of cells was measured in three fields of view using a phase-contrast microscope.
Student's t-test was used for the comparison between two groups, and Dunnet's test or Tukey's test was used for the comparison between three groups. The survival rate (see FIG. 3) was evaluated by a log-rank test using the Kaplan-Meier survival curve. […]

[3] = 1 mg/kg body weight/day orally for 70 consecutive days
[4] = 10 mg/kg body weight/day orally for 70 consecutive days

Row | SMILES | ratio of tumor area in the colon [1, 3] | number of tumors having a diameter of more than 2 mm [1, 3] | colon length [1, 4] | tumor area in the colon [1, 4] | ratio of tumor area in the colon [1, 4] | number of tumors having a diameter of more than 2 mm [1, 4] | colon length [1, 3] | tumor area in the colon [1, 3] | survival ([1]; 10 mg/kg body weight/day orally, 4 out of 8 mice died in the placebo group, FIG. 3) | cell migration level [2]
1 | O=C(CC(C(=O)O)c1c[nH]c2ccccc12)c1ccc(F)cc1F (centres unmarked) [Present Compound #1, 4-(2,4-difluorophenyl)-2-(1H-indole-3-yl)-4-oxo-butanoic acid] | smaller | smaller | shortening was suppressed | smaller | smaller | smaller | – | – | – | –
2 | COc1cc(COc2ccc3[nH]cc(CC(=O)O)c3c2)cc(OC)c1 [Present Compound #2, 5-(3,5-dimethoxybenzyloxy)-3-indoleacetic acid] | – | – | shortening was suppressed | smaller | smaller | smaller | shortening was suppressed | smaller | all 8 mice survived | lower
